Where a name gives a salt, the structure may show the parent alone.
Experiments:
[1] = biological target: Rabbit Reticulocyte Lysate; test: Rabbit Reticulocyte Lysate: inhibition of eukaryotic protein synthesis (luciferase); assay type: biochemical; settings: 30° C. 90 minutes, read-out: Retic. IC50
Method: Inhibition of eukaryotic protein synthesis was determined using the Rabbit Reticulocyte Lysate System, Nuclease-Treated from Promega (catalog #L-4960) with slight modifications to the manufacturer's protocol. Compounds were serial diluted in 0.5 mL microcentrifuge tubes by mixing and transferring 50 μL from the highest concentration to 50 μL of water, mixing and transferring 50 μL of this 2-fold dilution to 50 μL of water. This mixing and transferring was repeated so that there are a total of 8 tubes with serial dilutions of compound at 10× the desired screening concentration that are ultimately diluted to 1× by the addition of rabbit reticulocyte luciferase synthesis mixture. Serial dilutions of compounds were added ([…]) to wells in a black round bottom 96-well plate. Water (2.5 μL) was used as a “no inhibitor” control in 4 wells/plate. No RNA control reaction mixture ([…]; see below) was used as a control in 4 wells/plate for background luminescence. Rabbit reticulocyte luciferase synthesis mixture (22.5 μL; see below) was added to wells with compounds or water mixture and incubated at 30° C. for 90 minutes. Luciferase assay reagent (25 μL) was added with luminescence measured using a BioTek Synergy HTX plate reader. % Inhibition was determined relative to no inhibitor controls.
• 1,000 μL rabbit reticulocyte lysate • 5.7 μL Luciferase Control RNA (1 μg/μL) • 26 μL complete amino acid mixture • 395 μL water
• 70 μL rabbit reticulocyte lysate • 2 μL complete amino acid mixture • 28 μL water

E. coli S30 extract = test: E. coli S30 extract: inhibition of bacterial protein synthesis (luciferase); assay type: biochemical; settings: 37° C. 1 hour
Method: E. coli S30 extract: Inhibition of bacterial protein synthesis was determined using the E. coli S30 Extract System for Circular DNA (Promega catalog #L-2010) and Luciferase Assay Reagent (Promega catalog #E1500) with slight modifications to a published protocol. Fyfe, C., Sutcliffe, J. A. and Grossman, T. H. (2012) “Development and characterization of a Pseudomonas aeruginosa in vitro coupled transcription-translation assay system for evaluation of translation inhibitors” J. Microbiol. Methods 90(3), 256-261.
Compounds were serial diluted in 0.5 mL microcentrifuge tubes by mixing and transferring 50 μL from the highest concentration to 50 μL of water, mixing and transferring 50 μL of this 2-fold dilution to 50 μL of water. This mixing and transferring was repeated so that there are a total of 8 tubes with serial dilutions of compound at 10× the desired screening concentration that are ultimately diluted to 1× by the addition of S30 luciferase synthesis mixture. Serial dilutions of compounds were added (2 μL) to wells in a black round bottom 96-well plate. Water (2 μL) was used as a “no inhibitor” control in 4 wells/plate. No DNA control reaction mixture (20 μL; see below) was used as a control in 4 wells/plate for background luminescence. S30 luciferase synthesis mixture (18 μL; see below) was added to wells with compounds or water mixture and incubated at 37° C. for 1 hour. Reactions were stopped by transferring to 4° C. refrigerator for 5 minutes then 25 μL of luciferase activity mix was added. Luminescence was measured using a BioTek Synergy HTX plate reader. % Inhibition was determined relative to no inhibitor controls.
• 445 μL S30 extract, circular • 712 μL S30 Premix without amino acids • 4.45 μL pBESTluc™ DNA (1 μg/μL) • 78 μL complete amino acid mixture • 267 μL water
• 20 μL S30 extract, circular • 32 μL S30 Premix without amino acids • 7 μL complete amino acid mixture • 21 μL water

E. faecalis (Ef) = test: Broth microdilution MIC, E. faecalis; assay type: cell-based; settings: Enterococcus faecalis, read-out: Ef + bicarb 25 (MIC)
Method: (§1) A certified BSL-2 laboratory was used for testing. Compounds were evaluated using the broth microdilution minimum inhibitory concentration (MIC) and minimum bactericidal concentration (MBC) assays defined by Clinical and Laboratory Standards Institute (CLSI) in the M26-A guideline against S. aureus (Sa), E. coli (Ec), K. pneumoniae (Kp), A. baumannii (Ab), E. faecalis (Ef) and P. aeruginosa (Pa).
(§2) MICs were determined using the Clinical Laboratory and Standards Institute (CLSI) Broth Microdilution Method with slight modification. Clinical and Laboratory Standards Institute (2012). “Methods for dilution antimicrobial susceptibility tests for bacteria that grow aerobically; approved standard, 9th ed. M07-A9. Clinical and Laboratory Standards Institute, Wayne, PA.” Serial two-fold dilutions of compounds are prepared in sterile clear round-bottom 96-well plates.
(§3) To prepare microdilution trays, two-fold dilutions of antimicrobial agent are prepared in growth medium: Cation-Adjusted Mueller-Hinton Broth (CAMHB), or CAMHB supplemented with sodium bicarbonate (25 mM final concentration prepared from a 1.0 M stock solution) or CAMHB supplemented with heat inactivated human serum (Fisher Cat. #BP2657100) 0-50% by adding 200 μL of the highest concentration to be tested (64 μg/mL, for example) in row A, mixing and transferring 100 μL from row A to 100 μL growth medium in row B, then repeating the mixing and transferring through row H of the 96-well plate, discarding the excess 100 μL remaining. This slight modification to the CLSI protocol enables evaluation of MICs for 3 compounds per plate in triplicate, albeit with only 8 compound dilutions (CLSI protocol enables 2 compounds in triplicate with 10 dilutions). Bacterial suspensions are added to a final concentration of 5×10^4 CFU/well by adding 5 μL of a 1:10 dilution of a 0.5 McFarland suspension (1×10^8 CFU/mL) for each bacterium evaluated. Bacterial suspensions were prepared using the growth method described by CLSI. Well-isolated colonies (3-5 from an agar plate) were selected using a sterile loop and used to inoculate a tube containing 4 mL of CAMHB. The cultures are incubated at 35±2° C. until it achieves or exceeds the turbidity of the 0.5 McFarland standard, determined by measuring A600nm (usually two to six hours). When growth exceeds a 0.5 McFarland standard, the turbidity is adjusted with broth to be equivalent to a 0.5 McFarland standard.

A. baumannii (Ab) = test: Broth microdilution MIC, A. baumannii; assay type: cell-based; settings: Acinetobacter baumannii, read-out: Ab + bicarb 25 (MIC)
Method: as §1, §2, §3

S. aureus (Sa) = test: Broth microdilution MIC, S. aureus; assay type: cell-based; settings: Staphylococcus aureus, read-out: Sa + bicarb 25 (MIC)
Method: as §1, §2, §3

P. aeruginosa (Pa) = test: Broth microdilution MIC, P. aeruginosa; assay type: cell-based; settings: Pseudomonas aeruginosa, read-out: Pa + bicarb 25 (MIC)
Method: as §1, §2, §3

E. coli (Ec) = test: Broth microdilution MIC, E. coli; assay type: cell-based; settings: Escherichia coli, read-out: E. coli + bicarb 25 (MIC)
Method: as §1, §2, §3

## CC(C)(N)C(=O)N1CCN(C(=O)Nc2ccn(C3=CCC(CN4C[C@@H]5[C@@H](N)[C@@H]5C4)CC3)c(=O)n2)CC1 (single isomer, unassigned) [Compound 34, 4-(2-Amino-2-methylpropanoyl)-N-(1-(4-(((exo)-6-amino-3-azabicyclo[3.1.0]hexan-3-yl)methyl)cyclohex-1-en-1-yl)-2-oxo-1,2-dihydropyrimidin-4-yl)piperazine-1-carboxamide hydrochloride salt]
[1]
  IC50: ≥ 1000 nM
E. coli S30 extract
  IC50: < 500 nM

## CC1(N)CCN(CC2CC=C(n3ccc(NC(=O)N4CCN(C(=O)C(C)(C)N)CC4)nc3=O)CC2)CC1 (single isomer, unassigned) [Compound 38, 4-(2-Amino-2-methylpropanoyl)-N-(1-(4-((4-amino-4-methylpiperidin-1-yl)methyl)cyclohex-1-en-1-yl)-2-oxo-1,2-dihydropyrimidin-4-yl)piperazine-1-carboxamide hydrochloride salt]
[1]
  IC50: ≥ 1000 nM
E. coli S30 extract
  IC50: < 500 nM

## CC(C)(N)C(=O)N1CCN(C(=O)Nc2ccn(C3=CCC(CN[C@H]4CC[C@H](N)CC4)CC3)c(=O)n2)CC1 (single isomer, unassigned) [Compound 40, trans-4-(2-Amino-2-methylpropanoyl)-N-(1-(4-(((4-aminocyclohexyl)amino)methyl)cyclohex-1-en-1-yl)-2-oxo-1,2-dihydropyrimidin-4-yl)piperazine-1-carboxamide hydrochloride salt]
[1]
  IC50: ≥ 1000 nM
E. coli S30 extract
  IC50: < 500 nM

## CC(C)(N)C(=O)N1CCN(C(=O)Nc2ccn(C3=CCC(CN4CCCC(N)CC4)CC3)c(=O)n2)CC1 (single isomer, unassigned) [Compound 42, 4-(2-Amino-2-methylpropanoyl)-N-(1-(4-((4-aminoazepan-1-yl)methyl)cyclohex-1-en-1-yl)-2-oxo-1,2-dihydropyrimidin-4-yl)piperazine-1-carboxamide hydrochloride salt]
[1]
  IC50: ≥ 1000 nM
E. coli S30 extract
  IC50: < 500 nM

## CC(C)(N)C(=O)N1CCN(C(=O)Nc2ccn(C3CCC(CN4CC(N)C4)CC3)c(=O)n2)CC1 (stereo not shown) [Compound 10, 4-(2-Amino-2-methylpropanoyl)-N-(1-(4-((3-aminoazetidin-1-yl)methyl)cyclohexyl)-2-oxo-1,2-dihydropyrimidin-4-yl)piperazine-1-carboxamide hydrochloride salt]
[1]
  IC50: ≥ 1000 nM
E. coli S30 extract
  IC50: ≥ 1000 nM

## CC1(N)CCN(CC2CCC(n3ccc(NC(=O)N4CCN(C(=O)C(C)(C)N)CC4)nc3=O)CC2)CC1 (stereo not shown) [Compound 15, 4-(2-amino-2-methylpropanoyl)-N-(1-(4-((4-amino-4-methylpiperidin-1-yl)methyl)cyclohexyl)-2-oxo-1,2-dihydropyrimidin-4-yl)piperazine-1-carboxamide hydrochloride salt]
E. faecalis (Ef)
  MIC: > 32 µg/mL
A. baumannii (Ab)
  MIC: > 32 µg/mL
[1]
  IC50: ≥ 1000 nM
E. coli S30 extract
  IC50: < 500 nM

## CC(C)(N)C(=O)N1CCN(C(=O)Nc2ccn(C3=CCC(CN4C[C@@H]5[C@H](N)[C@@H]5C4)CC3)c(=O)n2)CC1 (stereo partly drawn) [Compound 22, endo-4-(2-Amino-2-methylpropanoyl)-N-(1-(4-((6-amino-3-azabicyclo[3.1.0]hexan-3-yl)methyl)cyclohex-1-en-1-yl)-2-oxo-1,2-dihydropyrimidin-4-yl)piperazine-1-carboxamide hydrochloride salt]
E. faecalis (Ef)
  MIC: 8 to 32 µg/mL
S. aureus (Sa)
  MIC: < 8 µg/mL
A. baumannii (Ab)
  MIC: < 8 µg/mL
P. aeruginosa (Pa)
  MIC: > 32 µg/mL
[1]
  IC50: ≥ 1000 nM
E. coli S30 extract
  IC50: < 500 nM

## CC1(N)CCN(CC2CC=C(n3ccc(NC(=O)N4CCN(C(=O)C(C)(C)N)CC4)nc3=O)CC2)CC1 (stereo not shown) [Compound 27, 4-(2-Amino-2-methylpropanoyl)-N-(1-(4-((4-amino-4-methylpiperidin-1-yl)methyl)cyclohex-1-en-1-yl)-2-oxo-1,2-dihydropyrimidin-4-yl)piperazine-1-carboxamide hydrochloride salt]
E. faecalis (Ef)
  MIC: < 8 µg/mL
S. aureus (Sa)
  MIC: < 8 µg/mL
A. baumannii (Ab)
  MIC: 8 to 32 µg/mL
P. aeruginosa (Pa)
  MIC: > 32 µg/mL
[1]
  IC50: ≥ 1000 nM
E. coli S30 extract
  IC50: < 500 nM

## CC(C)(N)C(=O)N1CCN(C(=O)Nc2ccn(C3=CCC(CN4CCC(N)CC4)CC3)c(=O)n2)CC1 (stereo not shown) [Compound 28, 4-(2-Amino-2-methylpropanoyl)-N-(1-(4-((4-aminopiperidin-1-yl)methyl)cyclohex-1-en-1-yl)-2-oxo-1,2-dihydropyrimidin-4-yl)piperazine-1-carboxamide hydrochloride salt]
E. faecalis (Ef)
  MIC: > 32 µg/mL
A. baumannii (Ab)
  MIC: > 32 µg/mL
[1]
  IC50: ≥ 1000 nM
E. coli S30 extract
  IC50: 500 to 1000 nM

## CC(C)(N)C(=O)N1CCN(C(=O)Nc2ccn(C3=CCC(CN4CC5CC5(N)C4)CC3)c(=O)n2)CC1 (stereo not shown) [Compound 29, 4-(2-Amino-2-methylpropanoyl)-N-(1-(4-((1-amino-3-azabicyclo [3.1.0]hexan-3-yl)methyl)cyclohex-1-en-1-yl)-2-oxo-1,2-dihydropyrimidin-4-yl)piperazine-1-carboxamide hydrochloride salt]
E. coli S30 extract
  IC50: 500 to 1000 nM

## CC(C)(N)C(=O)N1CCN(C(=O)Nc2ccn([C@H]3CC[C@H](CN(CCF)[C@H]4CC[C@H](N)CC4)CC3)c(=O)n2)CC1 [Compound 49, trans-trans-4-(2-amino-2-methylpropanoyl)-N-(1-(4-(((4-aminocyclohexyl)(2-fluoroethyl)amino)methyl)cyclohexyl)-2-oxo-1,2-dihydropyrimidin-4-yl)piperazine-1-carboxamide hydrochloride salt]
E. faecalis (Ef)
  MIC: 8 to 32 µg/mL
S. aureus (Sa)
  MIC: < 8 µg/mL
E. coli (Ec)
  MIC: < 8 µg/mL
A. baumannii (Ab)
  MIC: > 32 µg/mL
[1]
  IC50: ≥ 1000 nM
E. coli S30 extract
  IC50: < 500 nM

From US20250084041A1, “ANTIMICROBIAL COMPOUNDS AND METHODS” (Curza Global, LLC, priority 2021, published 2025)
